Laboratory results taken from ChEMBL document CHEMBL4350975, “Assessment of quinazolinone derivatives as novel non-nucleoside hepatitis B virus inhibitors” (Eur J Med Chem, 2019).

Legend:
[1] = Cytotoxicity against human HepG2.2.15 cells assessed as cell viability measured after 72 hrs by MTT assay; format: cell-based, HepG2 2.2.15
[2] = molecular target: Core antigen (Hepatitis B virus) (UniProt Q03732); assay: Inhibition of capsid protein in Hepatitis B virus infected in human HepG2.2.15 cells assessed as reduction in viral DNA level supplemented with fresh medium containing compound every 2 days and measured after 6 days by RT-PCR analysis relative to control; format: cell-based; design: concentration or dose not given beside the values; settings: concentration not given here
Sequence of Core antigen (Hepatitis B virus) (Q03732 as listed by the source): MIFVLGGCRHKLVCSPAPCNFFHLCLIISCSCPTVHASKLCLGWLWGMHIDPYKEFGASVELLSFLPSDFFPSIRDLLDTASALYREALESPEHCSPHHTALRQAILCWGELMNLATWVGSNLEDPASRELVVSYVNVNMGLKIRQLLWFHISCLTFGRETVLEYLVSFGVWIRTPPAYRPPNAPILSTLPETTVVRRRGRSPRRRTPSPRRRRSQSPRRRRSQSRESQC

[3] = Selectivity index, ratio of CC50 for human HepG2.2.15 cells to IC50 for capsid protein in Hepatitis B virus infected in human HepG2.2.15 cells assessed as reduction in viral DNA level; format: toxicity, cell-based; settings: read-out: Ratio CC50/IC50
[4] = molecular target: Core antigen (Hepatitis B virus) (UniProt Q03732); assay: Inhibition of capsid protein in lamivudine/entecavir-resistant Hepatitis B virus harboring rtL180M/rtM204V/rt184L mutant infected in human HepG2.2.15 cells assessed as reduction in viral DNA level at 4 uM measured after 72 hrs by PCR analysis relative to control; format: cell-based
[5] = molecular target: Core antigen (Hepatitis B virus) (UniProt Q03732); assay: Inhibition of capsid protein in wild type Hepatitis B virus infected in human HepG2.2.15 cells assessed as reduction of viral DNA level at 4 uM measured after 72 hrs by PCR analysis relative to control; format: cell-based
[6] = Selectivity index, ratio of CC50 for human HepG2.2.15 cells to IC50 for capsid protein in lamivudine/entecavir-resistant Hepatitis B virus harboring rtL180M/rtM204V/rt184L mutant infected in human HepG2.2.15 cells assessed as reduction in viral DNA level; format: toxicity, cell-based; settings: read-out: Ratio CC50/IC50
[7] = molecular target: Core antigen (Hepatitis B virus) (UniProt Q03732); assay: Inhibition of capsid protein in lamivudine/entecavir-resistant Hepatitis B virus harboring rtL180M/rtM204V/rt184L mutant infected in human HepG2.2.15 cells assessed as reduction in viral DNA level at 100 uM measured after 72 hrs by PCR analysis relative to control; format: cell-based
[8] = molecular target: Core antigen (Hepatitis B virus) (UniProt Q03732); assay: Inhibition of capsid protein in wild type Hepatitis B virus infected in human HepG2.2.15 cells assessed as reduction in viral DNA level at 100 uM measured after 72 hrs by PCR analysis relative to control; format: cell-based
[9] = molecular target: Core antigen (Hepatitis B virus) (UniProt Q03732); assay: Inhibition of capsid protein in lamivudine/entecavir-resistant Hepatitis B virus harboring rtL180M/rtM204V/rt184L mutant infected in human HepG2.2.15 cells assessed as reduction in viral DNA level at 10 uM measured after 72 hrs by PCR analysis relative to control; format: cell-based
[10] = molecular target: Core antigen (Hepatitis B virus) (UniProt Q03732); assay: Inhibition of capsid protein in wild type Hepatitis B virus infected in human HepG2.2.15 cells assessed as reduction of viral DNA level at 10 uM measured after 72 hrs by PCR analysis relative to control; format: cell-based

Row | Compound | CC50 at 72 h [1] | inhibition [2] | other results
1 | COc1ccccc1CSc1nc2ccc(OCCN(C)C)cc2c(=O)n1Cc1cccs1 | 14.7 µM | 53.9% | 
2 | COc1ccc(C(C)=O)cc1CSc1nc2ccc(O)cc2c(=O)n1Cc1cccs1 | > 100 µM | 3.26% | 
3 | O=c1c2cc(Br)ccc2nc(SCc2ccccc2)n1Cc1cccs1 | > 100 µM | 16.7% | 
4 | CCN(CC)CCOc1ccc2nc(SCc3ccccc3OC)n(Cc3cccs3)c(=O)c2c1 | 10.1 µM | 76% | selectivity ratio [3]: 5.25
5 | COc1ccccc1CSc1nc2ccccc2c(=O)n1Cc1cccs1 | > 100 µM | 76.3% | selectivity ratio [3]: > 35.6
6 | COc1ccccc1CSc1nc2ccc(F)cc2c(=O)n1Cc1cccs1 | > 100 µM | 79.6% | selectivity ratio [3]: > 40.5
7 | O=c1c2ccccc2nc(SCc2ccccc2)n1Cc1cccs1 | > 100 µM | 11% | 
8 | COc1ccc(C(C)=O)cc1CSc1nc2ccc(Cl)cc2c(=O)n1Cc1cccs1 | 74.6 µM | 40.7% | 
9 | O=c1c2cc(O)ccc2nc(SCc2ccccc2)n1Cc1cccs1 | > 100 µM | 5.62% | 
10 | CN(C)CCOc1ccc2nc(SCc3ccccc3)n(Cc3cccs3)c(=O)c2c1 | 21.1 to 26.7 µM | 83.3% | selectivity ratio [3]: 13.7; inhibition [4]: 80.9%; inhibition [5]: 82%; selectivity ratio [6]: 14.1
11 | COc1ccc(C(C)=O)cc1CSc1nc2ccc(I)cc2c(=O)n1Cc1cccs1 | 81.1 µM | 45.4% | 
12 | COc1ccc(C(C)=O)cc1CSc1nc2ccccc2c(=O)n1Cc1cccs1 | 71.5 µM | 47.1% | selectivity ratio [3]: 17.6
13 | CCN(CC)CCOc1ccc2nc(SCc3cc(C(C)=O)ccc3OC)n(Cc3cccs3)c(=O)c2c1 | 8.76 µM | 42% | 
14 | COc1ccccc1CSc1nc2ccc(I)cc2c(=O)n1Cc1cccs1 | > 100 µM | 65.9% | 
15 | COc1ccc(C(C)=O)cc1CSc1nc2ccc(F)cc2c(=O)n1Cc1cccs1 | 89 µM | 30.7% | 
16 | Nc1ccn([C@@H]2CS[C@H](CO)O2)c(=O)n1 [LAMIVUDINE] | > 100 µM | 94.3% | selectivity ratio [3]: > 1000; inhibition [7]: 17.7%; inhibition [8]: 90.7%; selectivity ratio [6]: < 1
17 | COc1ccc(C(C)=O)cc1CSc1nc2ccc(Br)cc2c(=O)n1Cc1cccs1 | > 100 µM | 46% | 
18 | COc1ccc(C(C)=O)cc1CSc1nc2ccc(C)cc2c(=O)n1Cc1cccs1 | > 100 µM | 56.1% | 
19 | COc1ccc(C(C)=O)cc1CSc1nc2ccc(OCCN(C)C)cc2c(=O)n1Cc1cccs1 | 18 µM | 33.9% | 
20 | COc1ccccc1CSc1nc2ccc(C)cc2c(=O)n1Cc1cccs1 | > 100 µM | 69.4% | 
21 | CCN(CC)CCOc1ccc2nc(SCc3ccccc3)n(Cc3cccs3)c(=O)c2c1 | 15.8 to 18 µM | 98.4% | selectivity ratio [3]: 22.2; inhibition [4]: 94%; inhibition [5]: 96.1%; selectivity ratio [6]: 21.4
22 | COc1ccccc1CSc1nc2ccc(Cl)cc2c(=O)n1Cc1cccs1 | > 100 µM | 63.3% | 
23 | O=c1c2cc(Cl)ccc2nc(SCc2ccccc2)n1Cc1cccs1 | > 100 µM | 16.1% | 
24 | COc1ccccc1CSc1nc2ccc(Br)cc2c(=O)n1Cc1cccs1 | > 100 µM | 64.2% | 
25 | Cc1ccc2nc(SCc3ccccc3)n(Cc3cccs3)c(=O)c2c1 | > 100 µM | 13.8% | 
26 | O=c1c2cc(I)ccc2nc(SCc2ccccc2)n1Cc1cccs1 | > 100 µM | 1.87% | 
27 | COc1ccccc1CSc1nc2ccc(O)cc2c(=O)n1Cc1cccs1 | > 100 µM | 0.59% | 
28 | O=c1c2cc(F)ccc2nc(SCc2ccccc2)n1Cc1cccs1 | > 100 µM | 9.53% | 
29 | C=C1[C@H](CO)[C@@H](O)C[C@@H]1n1cnc2c(=O)[nH]c(N)nc21 |  |  | inhibition [9]: 22.6%; inhibition [10]: 98.1%
